From ChEMBL document CHEMBL1127930, “Design, synthesis and biological properties of structurally non-related endotoxin inhibitors” (Bioorg Med Chem Lett, 1994)

System: Escherichia coli
Assay: Compound was evaluated to inhibit the LAL response produced by two endotoxin units of Escherichia coli LPS
Assay type: functional, organism-based

Compound	Concentration [µg/mL]
CCCCCCCCCCCCCC[N+](C)(C)C[C@@H]1OC(C)(C)O[C@H]1C[N+](C)(C)CCCCCCCCCCCCCC	75
CCCCCCCCCCCCCC[N+](C)(C)C[C@@H]1OCO[C@H]1C[N+](C)(C)CCCCCCCCCCCCCC	75
